Experimental data as given in PMC5496928, “Data driven polypharmacological drug design for lung cancer: analyses for targeting ALK, MET, and EGFR” (Journal of Cheminformatics, 2017).

Assays:
[1] = molecular target: T1, ALK (Homo sapiens, UniProt Q9UM73); test: KdELECT binding assay (DiscoverX); conditions: read-out: Kd study, ALK
T1 construct: purchased DiscoverX
Source text: (§1) Tests of the compounds confirm suitability for ALK + MET + EGFR polypharmacology optimization (Table 1). […] For compound 1, ^3 with the acrylamide function at the site corresponding to that of WZ4002, both ALK and MET binding were inhibited more weakly compared to EGFR binding. […] The sensitivity to the assay conditions seen for both forms of EGFR and uniformly tighter binding under the new assay conditions may indicate tighter binding for ALK and MET under these altered assay conditions as well.
(§2) The three tricyclic compounds (1, 2a and 2b) were purchased from the company ARTTSynthesis (www.arttsynthesis.com). Tests for binding properties were performed by the company DiscoverX (www.discoverx.com), using a concentration of 1 µM against ALK, MET and EGFR variants L858R and L858R_T790M) using KdELECT and scanKINETIC from DiscoverX [124, 125].

[2] = molecular target: T2, EGFR (L858R) (Homo sapiens, UniProt P00533, L858R); test: KdELECT binding assay (DiscoverX); conditions: read-out: Kd study, EGFR LR
T2 construct: purchased DiscoverX
Source text: as §1, §2

[3] = molecular target: T3, EGFR (L858R, T790M) (Homo sapiens, UniProt P00533, L858R/T790M); test: KdELECT binding assay (DiscoverX); conditions: read-out: Kd study, EGFR LR+TM
T3 construct: purchased DiscoverX
Source text: as §1, §2

[4] = molecular target: T4, MET (Homo sapiens, UniProt P08581); test: KdELECT binding assay (DiscoverX); conditions: read-out: Kd study, MET
T4 construct: purchased DiscoverX
Source text: as §1, §2

[5] = molecular target: T2, EGFR (L858R); test: scanKINETIC binding kinetics assay (DiscoverX); conditions: for Percentage after 30× dilution, EGFR LR: apparent residual compound relative to bound value at 1 h, significantly higher than 3% indicates slow dissociation; for Percentage comparing 1 or 6 h incubation, EGFR LR: percentages significantly lower than 100% indicate slow association
Source text: as §1
(§3) The kinetics testing results (Table 1) support several further important conclusions. […] The simultaneous appearance of slow association and slow dissociation complicates the interpretation of the results, but the percentage values shown in Table 1 show the apparent residual amounts of compounds relative to bound values at 1 h. These values indicate retention of roughly half of compound 1, and nearly all of compound 2a, after dilution. […] The similarity of compound 2a to 2b and 1 with respect to structure and binding strength, differing only in the linker to the acrylamide binding group, is further evidence that that it is the covalent binding property that determines the difference in binding kinetics, rather than e.g. a slow conformational change of the target enzymes.
as §2

[6] = molecular target: T3, EGFR (L858R, T790M); test: scanKINETIC binding kinetics assay (DiscoverX); conditions: for Percentage after 30× dilution, EGFR LR+TM: apparent residual compound relative to bound value at 1 h, significantly higher than 3% indicates slow dissociation; for Percentage comparing 1 or 6 h incubation, EGFR LR+TM: percentages significantly lower than 100% indicate slow association
Source text: as §1, §3, §2

[7] = system: EGFR (L858R) and EGFR (L858R, T790M); test: scanKINETIC conclusions stated in text for both EGFR forms together; type: binding; conditions: for Association behaviour: comparing 1-h and 6-h incubation times; for Covalent binding to EGFR (both forms): interpretation of kinetics data; for Dissociation behaviour: 30-fold dilution following one hour of incubation; for Retention of compound after dilution: relative to bound values at 1 h
Source text: as §1, §3, §2

[8] = molecular target: T1, ALK; parameters: method as in PMID 20033049; conditions: cited from earlier work
[9] = molecular target: T4, MET; conditions: cited from earlier work
[10] = system: EGFR; parameters: method as in PMID 20033049; conditions: cited from earlier work
[11] = system: MET mutant Y1230C; parameters: method as in PMID 19459657; conditions: cellular assay; cited from earlier work
[12] = Apparent Kd, EGFR LR (30× dilution), 30× dilution after 1 h incubation
[13] = Kd, EGFR LR (1 h), scanKINETIC, 1 h incubation
[14] = Kd, EGFR LR (6 h), scanKINETIC, 6 h incubation
[15] = Apparent Kd, EGFR LR+TM (30× dilution), 30× dilution after 1 h incubation
[16] = Kd, EGFR LR+TM (1 h), scanKINETIC, 1 h incubation
[17] = Kd, EGFR LR+TM (6 h), scanKINETIC, 6 h incubation

T1 sequence (Q9UM73 19-1620): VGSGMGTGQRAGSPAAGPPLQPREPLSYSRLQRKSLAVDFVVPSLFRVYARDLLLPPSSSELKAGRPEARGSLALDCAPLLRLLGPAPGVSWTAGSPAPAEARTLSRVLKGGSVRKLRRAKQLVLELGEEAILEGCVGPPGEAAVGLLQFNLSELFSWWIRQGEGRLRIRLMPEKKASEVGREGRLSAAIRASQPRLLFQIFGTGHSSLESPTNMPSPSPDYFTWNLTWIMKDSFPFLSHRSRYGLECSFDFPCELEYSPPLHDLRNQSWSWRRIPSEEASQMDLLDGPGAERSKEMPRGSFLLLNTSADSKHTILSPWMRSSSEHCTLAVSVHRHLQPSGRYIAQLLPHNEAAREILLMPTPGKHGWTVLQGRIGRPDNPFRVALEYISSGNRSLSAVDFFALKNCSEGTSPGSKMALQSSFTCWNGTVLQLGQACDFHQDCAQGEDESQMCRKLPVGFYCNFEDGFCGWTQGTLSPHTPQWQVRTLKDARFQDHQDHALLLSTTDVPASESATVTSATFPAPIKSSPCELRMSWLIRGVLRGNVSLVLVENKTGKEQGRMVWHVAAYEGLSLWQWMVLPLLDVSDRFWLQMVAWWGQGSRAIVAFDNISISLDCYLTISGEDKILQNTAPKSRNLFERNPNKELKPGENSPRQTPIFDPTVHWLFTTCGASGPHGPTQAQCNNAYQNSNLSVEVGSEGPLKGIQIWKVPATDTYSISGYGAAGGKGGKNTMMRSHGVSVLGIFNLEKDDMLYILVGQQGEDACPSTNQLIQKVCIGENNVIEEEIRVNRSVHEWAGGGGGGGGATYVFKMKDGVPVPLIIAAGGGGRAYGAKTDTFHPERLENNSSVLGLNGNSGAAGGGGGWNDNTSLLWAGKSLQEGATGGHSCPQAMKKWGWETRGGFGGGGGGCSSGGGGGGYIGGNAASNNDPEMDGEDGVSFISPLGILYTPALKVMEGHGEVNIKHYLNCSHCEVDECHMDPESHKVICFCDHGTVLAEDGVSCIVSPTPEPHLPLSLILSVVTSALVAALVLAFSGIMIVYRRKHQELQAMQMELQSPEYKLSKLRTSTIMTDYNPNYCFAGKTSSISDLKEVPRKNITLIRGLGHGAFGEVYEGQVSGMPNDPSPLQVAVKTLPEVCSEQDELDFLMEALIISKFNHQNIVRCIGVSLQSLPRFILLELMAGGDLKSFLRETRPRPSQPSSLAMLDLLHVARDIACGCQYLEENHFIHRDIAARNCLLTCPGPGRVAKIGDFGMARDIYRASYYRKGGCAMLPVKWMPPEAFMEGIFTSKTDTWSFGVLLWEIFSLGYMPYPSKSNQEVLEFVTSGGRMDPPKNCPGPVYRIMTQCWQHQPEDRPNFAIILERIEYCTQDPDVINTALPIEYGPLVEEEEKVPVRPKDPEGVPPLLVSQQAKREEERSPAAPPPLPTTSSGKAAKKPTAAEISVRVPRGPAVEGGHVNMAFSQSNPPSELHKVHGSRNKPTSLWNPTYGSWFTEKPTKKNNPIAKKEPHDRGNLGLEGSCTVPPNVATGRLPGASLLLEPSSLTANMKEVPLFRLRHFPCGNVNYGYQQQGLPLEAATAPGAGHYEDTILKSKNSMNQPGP
T4 sequence (P08581 25-1390): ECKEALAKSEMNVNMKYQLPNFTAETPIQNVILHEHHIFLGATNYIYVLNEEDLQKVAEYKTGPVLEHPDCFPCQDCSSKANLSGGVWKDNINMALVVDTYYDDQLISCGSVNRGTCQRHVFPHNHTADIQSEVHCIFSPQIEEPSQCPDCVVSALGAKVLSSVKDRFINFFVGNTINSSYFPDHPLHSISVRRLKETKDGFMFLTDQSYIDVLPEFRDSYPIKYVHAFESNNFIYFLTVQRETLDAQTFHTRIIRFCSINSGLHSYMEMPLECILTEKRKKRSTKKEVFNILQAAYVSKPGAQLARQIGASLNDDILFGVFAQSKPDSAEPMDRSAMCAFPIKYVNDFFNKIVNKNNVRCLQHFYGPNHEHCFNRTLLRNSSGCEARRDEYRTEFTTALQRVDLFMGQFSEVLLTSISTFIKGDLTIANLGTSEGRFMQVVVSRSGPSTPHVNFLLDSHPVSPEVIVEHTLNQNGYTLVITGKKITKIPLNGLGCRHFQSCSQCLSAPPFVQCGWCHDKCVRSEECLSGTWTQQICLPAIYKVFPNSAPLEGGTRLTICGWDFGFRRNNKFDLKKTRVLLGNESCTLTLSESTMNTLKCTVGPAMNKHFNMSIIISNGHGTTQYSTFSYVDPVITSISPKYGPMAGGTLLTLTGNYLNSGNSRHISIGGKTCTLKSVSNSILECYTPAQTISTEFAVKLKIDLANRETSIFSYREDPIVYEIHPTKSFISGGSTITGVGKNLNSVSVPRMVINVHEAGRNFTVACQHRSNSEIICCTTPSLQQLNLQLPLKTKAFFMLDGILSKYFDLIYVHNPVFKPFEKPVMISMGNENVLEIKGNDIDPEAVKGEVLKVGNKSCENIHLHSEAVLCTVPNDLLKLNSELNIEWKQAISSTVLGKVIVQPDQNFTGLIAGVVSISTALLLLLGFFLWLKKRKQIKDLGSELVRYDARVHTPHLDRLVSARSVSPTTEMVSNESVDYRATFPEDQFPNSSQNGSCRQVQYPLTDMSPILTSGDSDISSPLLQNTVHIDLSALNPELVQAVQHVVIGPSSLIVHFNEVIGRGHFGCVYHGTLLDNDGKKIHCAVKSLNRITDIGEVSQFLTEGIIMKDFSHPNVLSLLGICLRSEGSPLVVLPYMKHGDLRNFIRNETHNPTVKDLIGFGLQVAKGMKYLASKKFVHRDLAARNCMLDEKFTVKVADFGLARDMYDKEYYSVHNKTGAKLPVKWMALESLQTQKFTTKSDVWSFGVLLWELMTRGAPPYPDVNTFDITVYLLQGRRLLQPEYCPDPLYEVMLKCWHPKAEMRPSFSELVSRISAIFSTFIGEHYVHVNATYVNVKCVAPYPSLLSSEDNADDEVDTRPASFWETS

| SMILES | Kd [1] | Kd [2] | Kd [3] | Kd [4] | Kd [5, 12] | Kd [5, 13] | Kd [5, 14] | Percentage after 30× dilution, EGFR LR [5] | Percentage comparing 1 or 6 h incubation, EGFR LR [5] | Kd [6, 15] | Kd [6, 16] | Kd [6, 17] | Percentage after 30× dilution, EGFR LR+TM [6] | Percentage comparing 1 or 6 h incubation, EGFR LR+TM [6] | Covalent binding to EGFR (both forms) [7] | Association behaviour [7] | Dissociation behaviour [7] | Retention of compound after dilution [7] | further results |
| --- | --- | --- | --- | --- | --- | --- | --- | --- | --- | --- | --- | --- | --- | --- | --- | --- | --- | --- | --- |
| C=CC(=O)Nc1cccc(Oc2nc(Nc3ccc(N4CCN(C)CC4)cc3OC)ncc2Cl)c1 [WZ4002] |  |  |  |  |  |  |  |  |  |  |  |  |  |  |  |  |  |  | Binding to ALK [8]: known to bind; Binding to MET [9]: known to bind; Covalent binding to EGFR [10]: known to bind covalently to EGFR |
| C=CC(=O)Nc1cccc(Nc2nc(Nc3ccccc3)ncc2Cl)c1 [compound 1, N‐(3‐{[5‐chloro‐2‐(phenylamino)pyrimidin‐4‐yl]amino}phenyl)prop‐2‐enamide] | 800 nM | 420 nM | 110 nM | > 1000 nM |  | 57 nM | 5.7 nM |  | 10% |  | 25 nM | 3.2 nM |  | 13% |  | relatively slow-binding | slow dissociation behavior | roughly half |  |
| C[C@@H](Oc1cc(-c2cnn(C3CCNCC3)c2)cnc1N)c1c(Cl)ccc(F)c1Cl [crizotinib] |  |  |  |  |  |  |  |  |  |  |  |  |  |  |  |  |  |  | Weakening of binding to MET mutant Y1230C [11]: 15 fold |

The next lines start with results.

| Kd [1] | Kd [2] | Kd [3] | Kd [4] | Kd [5, 12] | Kd [5, 13] | Kd [5, 14] | Percentage after 30× dilution, EGFR LR [5] | Percentage comparing 1 or 6 h incubation, EGFR LR [5] | Kd [6, 15] | Kd [6, 16] | Kd [6, 17] | Percentage after 30× dilution, EGFR LR+TM [6] | Percentage comparing 1 or 6 h incubation, EGFR LR+TM [6] | Covalent binding to EGFR (both forms) [7] | SMILES | Association behaviour [7] | Dissociation behaviour [7] | Retention of compound after dilution [7] | further results |
| --- | --- | --- | --- | --- | --- | --- | --- | --- | --- | --- | --- | --- | --- | --- | --- | --- | --- | --- | --- |
| 390 nM | 780 nM | 270 nM | 330 nM | 2900 nM | 170 nM | 110 nM | 5.9% | 65% | 4100 nM | 58 nM | 100 nM | 1.4% | 170% | no evidence of covalent binding | C=CC(=O)NCc1cccc(Nc2ncc(Cl)c(Nc3ccccc3)n2)c1 [compound 2b, N‐[(3‐{[5‐chloro‐4‐(phenylamino)pyrimidin‐2‐yl]amino}phenyl)methyl]prop‐2‐enamide] | fast association |  |  | Time within which binding is complete [7]: ≤ 1 h; Time within which dissociation is complete ([7]; after 30-fold dilution): ≤ 5 h |
| 340 nM | 710 nM | 110 nM | 250 nM | 340 nM | 340 nM | 47 nM | 100% | 14% | 56 nM | 56 nM | 8 nM | 100% | 14% | able to bind covalently | C=CC(=O)Nc1cccc(Nc2ncc(Cl)c(Nc3ccccc3)n2)c1 [compound 2a, N‐(3‐{[5‐chloro‐4‐(phenylamino)pyrimidin‐2‐yl]amino}phenyl)prop‐2‐enamide] | relatively slow-binding | slow dissociation behavior | nearly all |  |
